According to ChEMBL document CHEMBL1150610, “Diterpenoids from Isodon adenantha” (J Nat Prod, 2002):
Values after ≈ are worked out from the molar mass of the structure shown.

These compounds were tested on K562 (assay: Cytotoxicity against human K562 cells).
Format: functional, cell-based

Row | Structure (SMILES) | IC50 [µg/mL]
1 | C=C1C(=O)[C@]23C[C@H]1C[C@H](OC(C)=O)[C@H]2[C@]1(C)[C@@H](OC(C)=O)C[C@H](O)C(C)(C)[C@H]1C[C@@H]3OC(C)=O [ADENANTHIN C] | 3.3 (≈ 6.92 µM)
2 | C=C1C(=O)[C@]23C[C@H]1C[C@H](O)[C@H]2[C@@]1(C)[C@H](C[C@@H]3OC(C)=O)C(C)(C)[C@@H](OC(C)=O)C[C@@H]1O [ADENANTHIN F] | 3.6 (≈ 8.28 µM)
3 | C=C1C(=O)[C@]23C[C@H]1C[C@H](OC(C)=O)[C@H]2[C@]1(C)[C@@H](OC(C)=O)C[C@H](O)C(C)(C)[C@H]1[C@@H](O)[C@@H]3OC(C)=O [WEISIENSIN A] | 3.3 (≈ 6.7 µM)
